Data taken from patent US20260374754A1, “N-((ISOQUINOLIN-6-YL)METHYL)-1H-PYRAZOLE-4-CARBOXAMIDE DERIVATIVES AS PLASMA KALLIKREIN INHIBITORS FOR THE TREATMENT OF HEREDITARY ANGIODEMA” (Takeda Pharmaceutical Company Limited, priority 2022, published 2026).

How the values were obtained:
plasma kallikrein = target: T1, plasma kallikrein (Homo sapiens, UniProt P03952); assay: Neat Human Plasma Assay (Fluorogenic Peptide), contact pathway-activated (FXIIa) plasma; format: biochemical; settings: human citrated plasma 78% final; 10 nM human FXIIa; PFR-AMC substrate; 5 minutes; room temperature
T1 construct: PFR-AMC substrate
Method: To analyze inhibition of plasma kallikrein in an ex vivo setting, the potency of compounds was measure in contact pathway-activated plasma assays. In a fluorogenic peptide substrate assay, test compounds dissolved in DMSO were added to sodium citrate collected human or rat plasma in a 96-well microplate. Alternatively, citrated plasma was collected from rats administered the compounds orally or by IV. 10 nM of human FXIIa (Enzyme Research Laboratories) diluted in PKa buffer (20 mM Tris-HCl, pH 7.5, 150 mM NaCl, 1 mM EDTA, 0.1% PEG-8000, and 0.1% Triton X-100) was added to the plasma, followed by the […] of the profluorescent, synthetic plasma kallikrein substrate PFR-AMC (also diluted in PKa buffer). Final plasma concentration in the reaction was 78%. Fluorescence was immediately monitored by excitation/emission wavelengths of 360 nm/480 nm respectively over a period of 5 minutes in a microplate reader. The resulting linear increase in fluorescence emission (reflecting PKa proteolysis of PFR-AMC substrate) was fit to extract a proteolytic rate (fluorescent units over time), and this rate was subsequently plotted against compound inhibitor concentration. Resulting plots were fit to a standard 4-parameter IC50/IC90 equation to determine min/max values, IC50/90, and slope. All experimental steps were performed at room temperature.

[1] = target: human activated kallikrein enzyme (Homo sapiens, UniProt P03952); assay: Inhibition of human activated plasma kallikrein, fluorogenic PFR-AMC substrate, 500 pM enzyme format; format: biochemical; settings: 500 pM activated kallikrein; 300 μM PFR-AMC; 30 min preincubation; 10 min room temperature; pH 7.5; read-out: Primary Dose Response Assay: Average EC50
Outline: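 500 pM activated kallikrein preincubated 30 min at room temperature with inhibitors in pH 7.5 Tris/EDTA/NaCl buffer with PEG-400 and Triton X-100. Reaction started with 300 μM PFR-AMC, run 10 min at room temperature; AMC fluorescence read at ex 380/em 460 nm.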

T1 sequence (P03952 20-638): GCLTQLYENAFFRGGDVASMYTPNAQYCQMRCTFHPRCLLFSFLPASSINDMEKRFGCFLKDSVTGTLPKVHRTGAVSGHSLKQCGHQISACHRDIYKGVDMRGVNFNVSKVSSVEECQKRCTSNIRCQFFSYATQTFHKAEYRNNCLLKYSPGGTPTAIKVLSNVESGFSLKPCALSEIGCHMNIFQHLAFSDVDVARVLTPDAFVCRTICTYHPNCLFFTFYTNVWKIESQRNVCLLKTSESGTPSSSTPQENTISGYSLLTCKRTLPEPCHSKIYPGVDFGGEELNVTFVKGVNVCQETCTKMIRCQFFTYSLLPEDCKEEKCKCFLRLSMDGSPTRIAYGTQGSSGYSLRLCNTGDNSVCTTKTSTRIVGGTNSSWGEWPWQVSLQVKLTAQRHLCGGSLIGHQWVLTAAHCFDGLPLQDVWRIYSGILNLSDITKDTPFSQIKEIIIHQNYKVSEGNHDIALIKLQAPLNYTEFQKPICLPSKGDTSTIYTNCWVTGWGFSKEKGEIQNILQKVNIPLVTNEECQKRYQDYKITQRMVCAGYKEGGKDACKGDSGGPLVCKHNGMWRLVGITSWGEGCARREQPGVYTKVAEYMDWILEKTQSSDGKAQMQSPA
human activated kallikrein enzyme, sequence (P03952 391-638 limits assumed): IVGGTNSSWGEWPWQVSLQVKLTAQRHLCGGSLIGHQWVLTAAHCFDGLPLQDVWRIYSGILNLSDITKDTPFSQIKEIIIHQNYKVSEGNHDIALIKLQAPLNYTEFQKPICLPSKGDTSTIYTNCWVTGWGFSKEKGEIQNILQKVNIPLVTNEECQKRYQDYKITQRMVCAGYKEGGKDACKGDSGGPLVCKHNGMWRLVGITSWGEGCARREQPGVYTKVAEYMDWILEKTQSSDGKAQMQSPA
human activated kallikrein enzyme, sequence (P03952 20-390 partner limits assumed): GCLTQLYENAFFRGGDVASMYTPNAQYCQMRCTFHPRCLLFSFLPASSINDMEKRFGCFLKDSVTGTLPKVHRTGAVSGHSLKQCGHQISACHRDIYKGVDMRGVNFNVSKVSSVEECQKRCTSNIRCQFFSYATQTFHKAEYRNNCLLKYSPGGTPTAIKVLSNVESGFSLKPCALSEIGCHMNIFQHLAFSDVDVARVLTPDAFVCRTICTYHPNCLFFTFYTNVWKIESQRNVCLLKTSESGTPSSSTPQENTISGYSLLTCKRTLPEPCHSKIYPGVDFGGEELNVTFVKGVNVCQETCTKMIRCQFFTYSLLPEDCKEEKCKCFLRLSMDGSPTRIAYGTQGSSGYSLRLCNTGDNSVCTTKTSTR

IC90 (plasma kallikrein)	EC50 [1]	Structure (SMILES)
≤ 1000 nM	< 1 nM	Cc1cc2c(N)nccc2c(C)c1CNc1cc(OCc2cn3cc(C4CC4)cc(C4(O)COC4)c3n2)ncn1 [Example 250, 3-(2-(((6-(((1-amino-5,7-dimethylisoquinolin-6-yl)methyl)amino)pyrimidin-4-yl)oxy)methyl)-6-cyclopropylimidazo[1,2-a]pyridin-8-yl)oxetan-3-ol]
> 5000 nM	< 1 nM	Cc1cc2c(N)nccc2c(C)c1CNc1cc(OCc2cn3cc(C4CC4)cc(C#N)c3n2)ncn1 [Example 258, 2-(((6-(((1-amino-5,7-dimethylisoquinolin-6-yl)methyl)amino)pyrimidin-4-yl)oxy)methyl)-6-cyclopropylimidazo[1,2-a]pyridine-8-carbonitrile]
≤ 1000 nM	< 1 nM	Cc1cc2c(N)nccc2c(C)c1CNc1cc(OCc2cn3cc(C4CC4)cc(N4CCCC4=O)c3n2)ncn1 [Example 259, 1-(2-(((6-(((1-amino-5,7-dimethylisoquinolin-6-yl)methyl)amino)pyrimidin-4-yl)oxy)methyl)-6-cyclopropylimidazo[1,2-a]pyridin-8-yl)pyrrolidin-2-one]
1000 to 5000 nM	< 1 nM	Cc1cc2c(N)nccc2c(C)c1CNc1cc(OCc2cn3nc(C4CC4)ccc3n2)ncn1 [Example 261, 6-(((6-((6-cyclopropylimidazo[1,2-b]pyridazin-2-yl)methoxy)pyrimidin-4-yl)amino)methyl)-5,7-dimethylisoquinolin-1-amine]
≤ 1000 nM	< 1 nM	Cc1cc2c(N)nccc2c(C)c1CNc1cc(OCc2cn3cc(C4CC4)cnc3n2)ncn1 [Example 262, 6-(((6-((6-cyclopropylimidazo[1,2-a]pyrimidin-2-yl)methoxy)pyrimidin-4-yl)amino)methyl)-5,7-dimethylisoquinolin-1-amine]
1000 to 5000 nM	< 1 nM	Cc1cc2c(N)nccc2c(C)c1CNc1cc(OCc2cn3cc(C4CC4)cc(C4(F)COC4)c3n2)ncn1 [Example 272, 6-(((6-((6-cyclopropyl-8-(3-fluorooxetan-3-yl)imidazo[1,2-a]pyridin-2-yl)methoxy)pyrimidin-4-yl)amino)methyl)-5,7-dimethylisoquinolin-1-amine]
> 5000 nM	< 1 nM	Cc1cc2c(N)nccc2c(C)c1CNc1cc(OCc2cc3cc(C4CC4)cc(CCC(=O)O)n3n2)ncn1 [Example 273, 3-(2-(((6-(((1-amino-5,7-dimethylisoquinolin-6-yl)methyl)amino)pyrimidin-4-yl)oxy)methyl)-5-cyclopropylpyrazolo[1,5-a]pyridin-7-yl)propanoic acid]
> 5000 nM	1 to 10 nM	Cc1cc2c(N)nccc2c(C)c1CNc1cc(OCc2cn3cc(C4CC4)ccc3n2)c(Cl)cn1 [Example 280, 6-(((5-chloro-4-((6-cyclopropylimidazo[1,2-a]pyridin-2-yl)methoxy)pyridin-2-yl)amino)methyl)-5,7-dimethylisoquinolin-1-amine]
> 5000 nM	1 to 10 nM	Cc1cc2c(N)nccc2c(C)c1CNc1cc(OCc2cc3cc(C4CC4)cnc3s2)ncn1 [Example 281, 6-(((6-((5-cyclopropylthieno[2,3-b]pyridin-2-yl)methoxy)pyrimidin-4-yl)amino)methyl)-5,7-dimethylisoquinolin-1-amine]
> 5000 nM	< 1 nM	Cc1cc2c(N)nccc2c(C)c1CNc1cc(OCc2cn3cc(C4CC4)ccc3n2)ccn1 [Example 284, 6-(((4-((6-cyclopropylimidazo[1,2-a]pyridin-2-yl)methoxy)pyridin-2-yl)amino)methyl)-5,7-dimethylisoquinolin-1-amine]
1000 to 5000 nM	< 1 nM	Cc1cc2c(N)nccc2c(C)c1CNc1cc(SCc2cn3cc(C4CC4)ccc3n2)ncn1 [Example 290, 6-(((6-(((6-cyclopropylimidazo[1,2-a]pyridin-2-yl)methyl)thio)pyrimidin-4-yl)amino)methyl)-5,7-dimethylisoquinolin-1-amine]

Continued, compound first:

Structure (SMILES)	IC90 (plasma kallikrein)	EC50 [1]
Cc1cc2c(N)nccc2c(C)c1CNC(=O)c1cnn(Cc2ccc(CC(=O)N3CC4CC4C3)cc2)c1 (stereo not shown) [Example 222, 1-(4-(2-(3-azabicyclo[3.1.0]hexan-3-yl)-2-oxoethyl)benzyl)-N-((1-amino-5,7-dimethylisoquinolin-6-yl)methyl)-1H-pyrazole-4-carboxamide]	1000 to 5000 nM	< 1 nM
Cc1cc2c(N)nccc2c(C)c1CNc1cc(NCc2ccc(Cn3ccccc3=O)cc2)cnn1 [Example 236, 1-(4-(((6-(((1-amino-5,7-dimethylisoquinolin-6-yl)methyl)amino)pyridazin-4-yl)amino)methyl)benzyl)pyridin-2(1H)-one]	≤ 1000 nM	< 1 nM
Cc1cc2c(N)nccc2c(C)c1CNc1cc(OCc2ccc3ncc(C4CC4)cc3c2)ccn1 [Example 239, 6-(((4-((3-cyclopropylquinolin-6-yl)methoxy)pyridin-2-yl)amino)methyl)-5,7-dimethylisoquinolin-1-amine]	> 5000 nM	1 to 10 nM
Cc1cc2c(N)nccc2c(C)c1CNc1nccnc1NCc1cn2cc(C3CC3)ccc2n1 [Example 240]	1000 to 5000 nM	1 to 10 nM
Cc1cc2c(N)nccc2c(C)c1CNc1cc(NCc2cn3nc(C4CC4)ccc3n2)ncn1 [Example 242, N4-((1-amino-5,7-dimethylisoquinolin-6-yl)methyl)-N6-((6-cyclopropylimidazo[1,2-b]pyridazin-2-yl)methyl)pyrimidine-4,6-diamine]	1000 to 5000 nM	< 1 nM
Cc1cc2c(N)nccc2c(C)c1CNc1cc(NCc2cc3cc(C4CC4)cnc3s2)ncn1 [Example 243, N4-((1-amino-5,7-dimethylisoquinolin-6-yl)methyl)-N6-((5-cyclopropylthieno[2,3-b]pyridin-2-yl)methyl)pyrimidine-4,6-diamine]	≤ 1000 nM	< 1 nM
Cc1cc2c(N)nccc2c(C)c1CNc1cc(NCc2cc3cc(C4CC4)ccn3n2)ncn1 [Example 244]	1000 to 5000 nM	< 1 nM
Cc1cc2c(N)nccc2c(C)c1CNc1cc(OCc2ccc(Cn3cccn3)cc2)ncn1 [Example 251, 6-(((6-((4-((1H-pyrazol-1-yl)methyl)benzyl)oxy)pyrimidin-4-yl)amino)methyl)-5,7-dimethylisoquinolin-1-amine]	> 5000 nM	< 1 nM
Cc1cc2c(N)nccc2c(C)c1CNc1cc(OCc2cc3cc(C4CC4)cc(N4CCOC4=O)n3n2)ncn1 [Example 256, 3-(2-(((6-(((1-amino-5,7-dimethylisoquinolin-6-yl)methyl)amino)pyrimidin-4-yl)oxy)methyl)-5-cyclopropylpyrazolo[1,5-a]pyridin-7-yl)oxazolidin-2-one]	≤ 1000 nM	< 1 nM
Cc1cc2c(N)nccc2c(C)c1CNc1nccc2cn(Cc3cn4nc(C5CC5)ccc4n3)nc12 [Example 265, 6-(((2-((6-cyclopropylimidazo[1,2-b]pyridazin-2-yl)methyl)-2H-pyrazolo[3,4-c]pyridin-7-yl)amino)methyl)-5,7-dimethylisoquinolin-1-amine]	≤ 1000 nM	< 1 nM
Cc1cc2c(N)nccc2c(C)c1CNc1nccc2nn(Cc3cn4cc(C5CC5)ccc4n3)cc12 [Example 267, 6-(((2-((6-cyclopropylimidazo[1,2-a]pyridin-2-yl)methyl)-2H-pyrazolo[4,3-c]pyridin-4-yl)amino)methyl)-5,7-dimethylisoquinolin-1-amine]	≤ 1000 nM	< 1 nM
Cc1cc2c(N)nccc2c(C)c1CNc1cc2c(cn1)cnn2Cc1cn2cc(C3CC3)ccc2n1 [Example 268, 6-(((1-((6-cyclopropylimidazo[1,2-a]pyridin-2-yl)methyl)-1H-pyrazolo[4,3-c]pyridin-6-yl)amino)methyl)-5,7-dimethylisoquinolin-1-amine]	≤ 1000 nM	< 1 nM
Cc1cc2c(N)nccc2c(C)c1CNc1cc2c(ccn2Cc2cc3cc(C4CC4)cnc3s2)cn1 [Example 283, 6-(((1-((5-cyclopropylthieno[2,3-b]pyridin-2-yl)methyl)-1H-pyrrolo[3,2-c]pyridin-6-yl)amino)methyl)-5,7-dimethylisoquinolin-1-amine]	1000 to 5000 nM	1 to 10 nM
Cc1cc2c(N)nccc2c(C)c1CNc1cc2c(cn1)c(F)cn2Cc1cn2cc(C3CC3)ccc2n1 [Example 285, 6-(((1-((6-cyclopropylimidazo[1,2-a]pyridin-2-yl)methyl)-3-fluoro-1H-pyrrolo[3,2-c]pyridin-6-yl)amino)methyl)-5,7-dimethylisoquinolin-1-amine]	1000 to 5000 nM	1 to 10 nM
Cc1cc2c(N)nccc2c(C)c1CNc1ncncc1NCc1cn2cc(C3CC3)ccc2n1 [Example 288, N4-((1-amino-5,7-dimethylisoquinolin-6-yl)methyl)-N5-((6-cyclopropylimidazo[1,2-a]pyridin-2-yl)methyl)pyrimidine-4,5-diamine]	> 5000 nM	1 to 10 nM
